Values of other authors, collected in Sander's compilation of Henry's law constants.
“And” between values parts separate entries of the source, which are not always exact repeats. Equal values may be shown once.

Assay: Henry solubility constant Hcp at 298.15 K (mol/(m3 Pa))
Conditions: cited value
[1] = reference: Burkholder et al. (2015)
[2] = reference: Burkholder et al. (2019)
[3] = reference: Sander et al. (2006)
[4] = reference: Sander et al. (2011)
[5] = reference: Barcelo and Hennion (1997)
[6] = reference: Fogg and Sangster (2003)
[7] = reference: Plyasunov et al. (2006)
[8] = reference: Hine and Weimar (1965)
[9] = reference: Palmer et al. (1985)
[10] = reference: Lindqvist and Rodhe (1985)
[11] = reference: Schwartz and White (1981)

## CF [fluoromethane]
reference: Brockbank (2013)
  Henry solubility constant Hcp: 0.00062
[1]
  Henry solubility constant Hcp: 0.00061
[2]
  Henry solubility constant Hcp: 0.00061
[3]
  Henry solubility constant Hcp: 0.00061
[4]
  Henry solubility constant Hcp: 0.00061

## C[Si](Cn1cncn1)(c1ccc(F)cc1)c1ccc(F)cc1 [flusilazole]
[5]
  Henry solubility constant Hcp: 27

## O=C1c2ccccc2C(=O)N1SC(Cl)(Cl)Cl [folpet]
[5]
  Henry solubility constant Hcp: 0.026

## O=C(Nc1ccccc1)Nc1ccnc(Cl)c1 [forchlorfenuron]
reference: MacBean (2012b)
  Henry solubility constant Hcp: 3.5e+06

## CCOP(=O)(SC(C)CC)N1CCSC1=O (stereo not drawn) [fosthiazate-1]
reference: MacBean (2012b)
  Henry solubility constant Hcp: 75

## [He] [helium]
reference: Clever (1979a)
  Henry solubility constant Hcp: 3.8e-06
reference: Himmelblau (1960)
  Henry solubility constant Hcp: 3.7e-06

## ClC1=C(Cl)C2(Cl)C3C(Cl)C=CC3C1(Cl)C2(Cl)Cl (stereo not drawn) [heptachlor]
[5]
  Henry solubility constant Hcp: 8.8e-05
reference: McCarty (1980)
  Henry solubility constant Hcp: 0.0043
reference: Meylan and Howard (1991)
  Henry solubility constant Hcp: 0.0067

## CCCCCCC=O [heptanal]
reference: Brockbank (2013)
  Henry solubility constant Hcp: 0.034

## CCCCCCC [heptane]
reference: Brockbank (2013)
  Henry solubility constant Hcp: 4.4e-06

## CCCCCCCc1ccccc1 [heptylbenzene]
reference: Brockbank (2013)
  Henry solubility constant Hcp: 0.00027

## ClC(Cl)=C(Cl)C(Cl)=C(Cl)Cl [hexachlorobutadiene]
reference: Brockbank (2013)
  Henry solubility constant Hcp: 0.00056
[6]
  Henry solubility constant Hcp: 0.00083
reference: Goldstein (1982)
  Henry solubility constant Hcp: 0.00098
reference: Horvath and Getzen (1999)
  Henry solubility constant Hcp: 0.00096

## ClC1=C(Cl)C(Cl)(Cl)C(Cl)=C1Cl [hexachlorocyclopentadiene]
reference: Goldstein (1982)
  Henry solubility constant Hcp: 0.0006

## ClC(Cl)(Cl)C(Cl)(Cl)Cl [hexachloroethane]
reference: Brockbank (2013)
  Henry solubility constant Hcp: 0.0028
[1]
  Henry solubility constant Hcp: 0.0026
[2]
  Henry solubility constant Hcp: 0.0027
reference: Goldstein (1982)
  Henry solubility constant Hcp: 0.001

## CCCCC(O)(Cn1cncn1)c1ccc(Cl)cc1Cl (stereo not drawn) [hexaconazole]
[5]
  Henry solubility constant Hcp: 28

## FC(F)(F)C(F)(F)C(F)(F)C(F)(F)C(F)(F)C(F)(F)C(F)(F)F [hexadecafluoroheptane]
reference: Brockbank (2013)
  Henry solubility constant Hcp: 3e-09

## Fc1c(F)c(F)c(F)c(F)c1F [hexafluorobenzene]
reference: Brockbank (2013)
  Henry solubility constant Hcp: 0.0003

## CCCCCC [hexane]
reference: Brockbank (2013)
  Henry solubility constant Hcp: 5.7e-06

## N#CCCCCC#N [hexanedinitrile]
[7]
  Henry solubility constant Hcp: 1500

## CCCCCC#N [hexanenitrile]
[7]
  Henry solubility constant Hcp: 0.12

## CCCCCCOC(C)=O [hexyl ethanoate]
reference: Brockbank (2013)
  Henry solubility constant Hcp: 0.02

## CCCCCCc1ccccc1 [hexylbenzene]
reference: Brockbank (2013)
  Henry solubility constant Hcp: 0.0004

## [H] [hydrogen atom]
[1]
  Henry solubility constant Hcp: 2.6e-06
[2]
  Henry solubility constant Hcp: 2.6e-06
[3]
  Henry solubility constant Hcp: 2.6e-06
[4]
  Henry solubility constant Hcp: 2.6e-06

## OO [hydrogen peroxide]
reference: Brockbank (2013)
  Henry solubility constant Hcp: 950
[1]
  Henry solubility constant Hcp: 860
[2]
  Henry solubility constant Hcp: 860
[6]
  Henry solubility constant Hcp: 980
[3]
  Henry solubility constant Hcp: 760
[4]
  Henry solubility constant Hcp: 830

## [HH] [hydrogen]
reference: Himmelblau (1960)
  Henry solubility constant Hcp: 7.8e-06
[8]
  Henry solubility constant Hcp: 7.7e-06
reference: Young (1981a)
  Henry solubility constant Hcp: 7.7e-06

## [O-]O [hydroperoxy radical]
reference: Régimbal and Mozurkewich (1997)
  Henry solubility constant Hcp: 57

## [OH] [hydroxyl radical]
reference: Jacob (1986)
  Henry solubility constant Hcp: 0.25

## OCOO [hydroxymethyl hydroperoxide]
[1]
  Henry solubility constant Hcp: 17000
[2]
  Henry solubility constant Hcp: 17000
[3]
  Henry solubility constant Hcp: 17000
[4]
  Henry solubility constant Hcp: 17000

## OBr [hypobromous acid]
[1]
  Henry solubility constant Hcp: > 13
[2]
  Henry solubility constant Hcp: > 13

## OCl [hypochlorous acid]
[1]
  Henry solubility constant Hcp: 6.5
[2]
  Henry solubility constant Hcp: 6.5
reference: Huthwelker et al. (1995)
  Henry solubility constant Hcp: 6.5
[3]
  Henry solubility constant Hcp: 6.5
[4]
  Henry solubility constant Hcp: 6.5

## OI [hypoiodous acid]
[9]
  Henry solubility constant Hcp: > 4.1

## c1ccc2[nH]ccc2c1 [indole]
reference: Howard and Meylan (1997)
  Henry solubility constant Hcp: 15

## II [iodine (molecular)]
reference: Berdnikov and Bazhin (1970)
  Henry solubility constant Hcp: 0.031
[9]
  Henry solubility constant Hcp: 0.03
reference: Thompson and Zafiriou (1983)
  Henry solubility constant Hcp: 0.011

## CCI [iodoethane]
reference: Brockbank (2013)
  Henry solubility constant Hcp: 0.0015
[6]
  Henry solubility constant Hcp: 0.0015

## CI [iodomethane]
reference: Brockbank (2013)
  Henry solubility constant Hcp: 0.002
[1]
  Henry solubility constant Hcp: 0.002
[2]
  Henry solubility constant Hcp: 0.002
reference: Liss and Slater (1974)
  Henry solubility constant Hcp: 0.0017
[3]
  Henry solubility constant Hcp: 0.002
[4]
  Henry solubility constant Hcp: 0.002

## CC(C)NC(=O)N1CC(=O)N(c2cc(Cl)cc(Cl)c2)C1=O [iprodione]
[5]
  Henry solubility constant Hcp: 710

## CCOP(=S)(NC(C)C)Oc1ccccc1C(=O)OC(C)C (stereo not drawn) [isofenphos]
[5]
  Henry solubility constant Hcp: 1000
reference: MacBean (2012b)
  Henry solubility constant Hcp: 240

## CS(=O)(=O)c1cc(C(F)(F)F)ccc1C(=O)c1cnoc1C1CC1 [isoxaflutole]
reference: MacBean (2012b)
  Henry solubility constant Hcp: 53000

## [Kr] [krypton]
reference: Clever (1979b)
  Henry solubility constant Hcp: 2.5e-05

## CON(C)C(=O)Nc1ccc(Cl)c(Cl)c1 [linuron]
[5]
  Henry solubility constant Hcp: 1.8
reference: MacBean (2012b)
  Henry solubility constant Hcp: 5000

## CCOC(=O)CC(SP(=S)(OC)OC)C(=O)OCC (stereo not drawn) [malathion]
[5]
  Henry solubility constant Hcp: 4.3
reference: Brockbank (2013)
  Henry solubility constant Hcp: 20

## [Br][Hg][Br] [mercury dibromide]
reference: Kanefke (2008)
  Henry solubility constant Hcp: 960

## [Cl][Hg][Cl] [mercury dichloride]
reference: Kanefke (2008)
  Henry solubility constant Hcp: 13000
[10]
  Henry solubility constant Hcp: 14000
reference: Shon et al. (2005)
  Henry solubility constant Hcp: 240000
reference: WHO (1990)
  Henry solubility constant Hcp: 14000

## [Hg+2].[OH-].[OH-] [mercury dihydroxide]
[10]
  Henry solubility constant Hcp: 130
reference: WHO (1990)
  Henry solubility constant Hcp: 130

## Cc1nnc(-c2ccccc2)c(=O)n1N [metamitron]
[5]
  Henry solubility constant Hcp: 1e+06

## Cc1cccc(C)c1N(Cn1cccn1)C(=O)CCl [metazachlor]
[5]
  Henry solubility constant Hcp: 13

## CN [methanamine]
[1]
  Henry solubility constant Hcp: 0.89
[2]
  Henry solubility constant Hcp: 0.89

## CS [methanethiol]
[1]
  Henry solubility constant Hcp: 0.0038
[2]
  Henry solubility constant Hcp: 0.0038
reference: Goldstein (1982)
  Henry solubility constant Hcp: 0.0026
[3]
  Henry solubility constant Hcp: 0.0038
[4]
  Henry solubility constant Hcp: 0.0038

## CNC(=O)Oc1cc(C)c(SC)c(C)c1 [methiocarb]
reference: MacBean (2012b)
  Henry solubility constant Hcp: 8400

## CNC(=O)ON=C(C)SC [methomyl]
[5]
  Henry solubility constant Hcp: 150

## COc1ccccc1 [methoxybenzene]
reference: Brockbank (2013)
  Henry solubility constant Hcp: 0.029
[8]
  Henry solubility constant Hcp: 0.0023

## COC(=O)C(C)C [methyl 2-methylpropanoate]
reference: Brockbank (2013)
  Henry solubility constant Hcp: 0.026

## COC(=O)c1ccccc1 [methyl benzoate]
reference: Brockbank (2013)
  Henry solubility constant Hcp: 0.29

## CCCCOC [methyl butyl ether]
reference: Brockbank (2013)
  Henry solubility constant Hcp: 0.0066

## COC(C)=O [methyl ethanoate]
reference: Brockbank (2013)
  Henry solubility constant Hcp: 0.085
[2]
  Henry solubility constant Hcp: 0.085

## COO [methyl hydroperoxide]
reference: Brockbank (2013)
  Henry solubility constant Hcp: 3
[1]
  Henry solubility constant Hcp: 3
[2]
  Henry solubility constant Hcp: 3
[3]
  Henry solubility constant Hcp: 3
[4]
  Henry solubility constant Hcp: 3

## CN=C=S [methyl isothiocyanate]
[1]
  Henry solubility constant Hcp: 0.17
[2]
  Henry solubility constant Hcp: 0.17
[4]
  Henry solubility constant Hcp: 0.17

## C=C(C)C(=O)OC [methyl methacrylate]
reference: Brockbank (2013)
  Henry solubility constant Hcp: 0.029

## CCC(=O)OC [methyl propanoate]
reference: Brockbank (2013)
  Henry solubility constant Hcp: 0.058

## Cc1ccccc1 [methylbenzene]
reference: Brockbank (2013)
  Henry solubility constant Hcp: 0.0019
reference: Goldstein (1982)
  Henry solubility constant Hcp: 0.0015
reference: McAuliffe (1971)
  Henry solubility constant Hcp: 0.0015

## CC1CCCCC1 [methylcyclohexane]
reference: Brockbank (2013)
  Henry solubility constant Hcp: 2.6e-05

## CC1CCCC1 [methylcyclopentane]
reference: Brockbank (2013)
  Henry solubility constant Hcp: 2.8e-05

## COP(=S)(OC)Oc1ccc([N+](=O)[O-])cc1 [methylparathion]
[5]
  Henry solubility constant Hcp: 0.47

## CCc1cccc(C)c1N(C(=O)CCl)C(C)COC (stereo not drawn) [metolachlor]
[5]
  Henry solubility constant Hcp: 11
[6]
  Henry solubility constant Hcp: 620
reference: Muir et al. (2004)
  Henry solubility constant Hcp: 750 and 720
reference: Rice et al. (1997b)
  Henry solubility constant Hcp: 1200

## COc1ccc(NC(=O)N(C)C)cc1Cl [metoxuron]
[5]
  Henry solubility constant Hcp: 6.6

## c1ccc2cc3cc4ccccc4cc3cc2c1 [naphthacene]
reference: Mackay et al. (1992b)
  Henry solubility constant Hcp: 250

## c1ccc2ccccc2c1 [naphthalene]
reference: Brockbank (2013)
  Henry solubility constant Hcp: 0.021
[6]
  Henry solubility constant Hcp: 0.022
reference: Goldstein (1982)
  Henry solubility constant Hcp: 0.021
reference: McCarty (1980)
  Henry solubility constant Hcp: 0.027

## [Ne] [neon]
reference: Clever (1979a)
  Henry solubility constant Hcp: 4.5e-06

## O=[N+]([O-])c1ccccc1 [nitrobenzene]
reference: Brockbank (2013)
  Henry solubility constant Hcp: 0.47
reference: Goldstein (1982)
  Henry solubility constant Hcp: 0.47
reference: Mackay et al. (1995)
  Henry solubility constant Hcp: 0.75

## CC[N+](=O)[O-] [nitroethane]
reference: Brockbank (2013)
  Henry solubility constant Hcp: 0.21
[1]
  Henry solubility constant Hcp: 0.21
[2]
  Henry solubility constant Hcp: 0.21
reference: Gaffney and Senum (1984)
  Henry solubility constant Hcp: 0.21
[3]
  Henry solubility constant Hcp: 0.21
[4]
  Henry solubility constant Hcp: 0.21

## [O]N=O [nitrogen dioxide]
[1]
  Henry solubility constant Hcp: 0.00012
[2]
  Henry solubility constant Hcp: 0.00012
[3]
  Henry solubility constant Hcp: 0.00014
[4]
  Henry solubility constant Hcp: 0.00012
[11]
  Henry solubility constant Hcp: 0.00012

## [N]=O [nitrogen monoxide]
reference: Loomis (1928)
  Henry solubility constant Hcp: 1.9e-05
[3]
  Henry solubility constant Hcp: 1.9e-05
[4]
  Henry solubility constant Hcp: 1.9e-05
[11]
  Henry solubility constant Hcp: 1.9e-05
reference: Young (1981b)
  Henry solubility constant Hcp: 1.9e-05
